Experimental data from patent US20090081194A1, “COMPOSITIONS AND METHODS FOR REDUCING RISK OF DEVELOPMENT, OR SEVERITY, OF INAPPROPRIATE IMMUNE RESPONSE IN EYES” (priority 2007, published 2009).

Assays:
U937 cells = conditions: H. Mitsuzawa et al. 2006; cited from earlier work
NF-κB = conditions: LPS-elicited; H. Mitsuzawa et al. 2006; cited from earlier work
TLR9 [1] = molecular target: T1, TLR9 (Homo sapiens, UniProt Q9NR96); conditions: Bhattacharjee et al. 2006; Macfarlane et al. 1998; cited from earlier work
T1 sequence (Q9NR96 26-1032): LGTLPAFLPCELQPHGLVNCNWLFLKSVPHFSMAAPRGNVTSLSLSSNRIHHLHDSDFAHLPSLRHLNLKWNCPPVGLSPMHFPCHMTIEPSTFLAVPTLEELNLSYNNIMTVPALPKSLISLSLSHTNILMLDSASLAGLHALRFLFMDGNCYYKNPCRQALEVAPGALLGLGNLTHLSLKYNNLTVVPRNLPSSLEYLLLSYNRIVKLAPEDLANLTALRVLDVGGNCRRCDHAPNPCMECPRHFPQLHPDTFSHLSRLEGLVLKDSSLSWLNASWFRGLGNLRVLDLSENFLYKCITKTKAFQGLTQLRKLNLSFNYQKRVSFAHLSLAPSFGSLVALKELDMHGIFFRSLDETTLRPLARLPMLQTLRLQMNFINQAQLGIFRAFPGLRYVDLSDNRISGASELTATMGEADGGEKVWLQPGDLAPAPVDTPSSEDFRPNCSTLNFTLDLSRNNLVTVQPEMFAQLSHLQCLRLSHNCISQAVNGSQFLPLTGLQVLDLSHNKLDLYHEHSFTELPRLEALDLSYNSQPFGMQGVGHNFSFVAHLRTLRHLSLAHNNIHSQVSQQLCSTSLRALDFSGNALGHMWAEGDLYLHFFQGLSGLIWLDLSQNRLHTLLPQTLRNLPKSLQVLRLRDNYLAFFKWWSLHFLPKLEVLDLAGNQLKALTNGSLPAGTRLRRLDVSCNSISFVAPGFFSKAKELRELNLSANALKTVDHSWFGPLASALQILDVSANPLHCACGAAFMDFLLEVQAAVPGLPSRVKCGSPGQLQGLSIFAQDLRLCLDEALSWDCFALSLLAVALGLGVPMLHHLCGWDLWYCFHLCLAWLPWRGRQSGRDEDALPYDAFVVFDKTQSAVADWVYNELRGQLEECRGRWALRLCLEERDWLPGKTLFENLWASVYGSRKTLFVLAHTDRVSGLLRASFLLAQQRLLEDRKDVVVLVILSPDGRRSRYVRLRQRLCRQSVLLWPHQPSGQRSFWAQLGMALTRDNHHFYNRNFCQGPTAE

[2] = test system: HCEL, a human corneal epithelial cell line; experiment: TLR ligand-induced CXCL8 (IL-8) release, HCEL cell line; type: cell-based; conditions: inhibitor 1 hour before, FIG. 7
Excerpt: (§1) Three human cell lines representative of immune responsive cells of the ocular surface (HCEL, a human corneal epithelial cell line representative of cells present on the ocular surface; HL-60, a neutrophil-like cell line representative of neutrophils present in the tear layer, especially in the closed eye; and U937, a macrophage cell line representative of dendritic cells of the cornea, especially of those at the limbus) were exposed to various concentrations of compositions of the present invention containing the inhibitory ODN TTAGGG (InvivoGen, San Diego, Calif.) and vitamin D (1α,25-Dihydroxyvitamin D3, Sigma-Aldrich, St. Louis, Mo.) and control compositions containing prednisolone (1,4-Pregnadiene-11β,17α,21-triol-3,20-dione, Sigma-Aldrich, St. Louis, Mo.) for 1 hour prior to activation by the TLR ligand Pam3Cys for 6 hour, flagellin (flagellin purified from Salmonella typhimurium, InvivoGen, San Diego, Calif.) for 24 hr, or the stimulatory CpG type B ODN 2006 (Invivogen, San Diego, Calif.) for 24 hours. After incubation at 37° C., supernates were collected for ELISA assay (R&D Systems, Minneapolis, Minn.) for the pro-inflammatory cytokine CXCL8 (“IL-8”). Both the inhibitory ODN TTAGGG and vitamin D inhibited cytokine response to TLR ligand activation of each cell line in an inhibitor-specific manner. […] Inhibition of the stimulatory ODN CpGB ODN 2006 was only tested with inhibitory ODN TTAGGG on U937 cells.

[3] = test system: HL-60, a neutrophil-like cell line; experiment: TLR ligand-induced CXCL8 (IL-8) release, HL-60 cell line; type: cell-based, human; conditions: inhibitor 1 hour before, FIG. 7
Excerpt: as §1

[4] = test system: U937, a macrophage cell line; experiment: TLR ligand-induced CXCL8 (IL-8) release, U937 cell line; type: cell-based, human; conditions: FIG. 7
Excerpt: as §1

TLR9 [5] = molecular target: T1, TLR9; conditions: Gursel et al. 2003; Stunz et al. 2002; cited from earlier work
TLR2 = conditions: monocytes; K. Sadeghi et al. 2006; cited from earlier work
TLR4 = conditions: monocytes; K. Sadeghi et al. 2006; cited from earlier work
[6] = flagellin activation 24 hr, inhibitor 1 hour before

sTLR4: soluble form of a CD14-binding extracellular domain of TLR4
LPS-elicited IL-8 release (U937 cells): effective in inhibiting | NF-κB activation (NF-κB): effective in inhibiting

CCN(CCO)CCCC(C)Nc1ccnc2cc(Cl)ccc12 (stereo not drawn) [hydroxychloroquine]
immunostimulatory action of CpG ODN (TLR9 [1]): block the immunostimulatory action of CpG ODN

TTAGGG (listed as Homo sapiens) [ODN TTTAGGG]
CXCL8 (IL-8) cytokine response ([2]; Pam3Cys activation 6 hour): reduced the cytokine response | CXCL8 (IL-8) cytokine response ([3]; Pam3Cys activation 6 hour): reduced the cytokine response | CXCL8 (IL-8) cytokine response ([4]; Pam3Cys activation 6 hour, inhibitor 1 hour before): reduced the cytokine response | CXCL8 (IL-8) cytokine response ([4]; stimulatory CpG type B ODN 2006 activation 24 hours): reduced the cytokine response | colocalization of CpG DNA with TLR9 within endosomal vesicles (TLR9 [5]): block the colocalization

Nc1c2ccccc2nc2ccccc12 [9-aminoacridine]
immunostimulatory action of CpG ODN (TLR9 [1]): block the immunostimulatory action of CpG ODN

C[C@]12C=CC(=O)C=C1CC[C@@H]1[C@@H]2[C@@H](O)C[C@@]2(C)[C@H]1CC[C@]2(O)C(=O)CO [Prednisolone, 1,4-Pregnadiene-11β,17α,21-triol-3,20-dione]
CXCL8 (IL-8) cytokine response ([2]; Pam3Cys activation 6 hour): inhibited | CXCL8 (IL-8) cytokine response ([2]; flagellin activation 24 hr): inhibited | CXCL8 (IL-8) cytokine response ([3]; Pam3Cys activation 6 hour): inhibited | CXCL8 (IL-8) cytokine response ([3]; flagellin activation 24 hr): inhibited | CXCL8 (IL-8) cytokine response [4, 6]: inhibited

CCN(CC)CCCC(C)Nc1ccnc2cc(Cl)ccc12 (stereo not drawn) [chloroquine]
immunostimulatory action of CpG ODN (TLR9 [1]): block the immunostimulatory action of CpG ODN

C=C1/C(=C\C=C2/CCC[C@]3(C)[C@@H]([C@H](C)CCCC(C)(C)O)CC[C@@H]23)C[C@@H](O)C[C@@H]1O [Vitamin D, 1α,25-Dihydroxyvitamin D3]
CXCL8 (IL-8) cytokine response ([2]; Pam3Cys activation 6 hour): reduced the cytokine response | CXCL8 (IL-8) cytokine response ([3]; flagellin activation 24 hr): reduced the cytokine response | CXCL8 (IL-8) cytokine response [4, 6]: reduced the cytokine response | expression of TLR2 (TLR2): diminishes the expression | expression of TLR4 (TLR4): diminishes the expression

Nc1ccnc2ccccc12 [4-aminoquinoline]
immunostimulatory action of CpG ODN (TLR9 [1]): block the immunostimulatory action of CpG ODN

CCN(CC)CCCC(C)Nc1c2ccc(Cl)cc2nc2ccc(OC)cc12 (stereo not drawn) [quinacrine]
immunostimulatory action of CpG ODN (TLR9 [1]): block the immunostimulatory action of CpG ODN

B1: sMD-2: soluble form of MD-2 (protein, UniProt Q9Y6Y9 19-160, looked up)
Lymphocyte antigen 96: QKQYWVCNSSDASISYTYCDKMQYPISINVNPCIELKRSKGLLHIFYIPRRDLKQLYFNLYITVNTMNLPKRKEVICRGSDDDYSFCRALKGETVNTTISFSFKGIKFSKGKYKCVVEAISGSPEEMLFCLEFVILHQPNSN
LPS-elicited IL-8 release (U937 cells): effective in inhibiting | NF-κB activation (NF-κB): effective in inhibiting
